Test results taken from patent US20250127774A1, “COMPOUNDS FOR LABELLING NUCLEIC ACID AND USES THEREOF” (THE ROYAL INSTITUTION FOR THE ADVANCEMENT OF …, priority 2022, published 2025).
pIC50, pKd: −log10 of the molar value. Several values for one entry are separate records, joined by “and”; a condition that tells them apart may be missing. Identical values can stand only once. Like-named read-outs stand apart in the source and are kept apart here.

Experiments:
calf thymus (CT) DNA = assay: Binding affinity measurements of PINK with CT-DNA (absorbance changes at 575 nm); details: 10 μM PINK, CT-DNA 0-160 μM base pairs, 50 mM NaOAc buffer pH 5.2 (0.2% DMSO); 1 molecule per 5 base pairs; read-out: apparent dissociation constant (KD)
Procedure: B) Fluorescence changes (excitation: 500 nm, emission: 590 nm; 515 nm cutoff filter) of 20 μM PINK in the presence of 1 mM b.p. CT-DNA (50 eq) in PBS pH 7.4 (10% DMSO) followed by addition of 5-norbornene-2-methanol (2 mM, 100 eq).
To evaluate the ability of PINK (4) to undergo reversible intercalation into duplex DNA, the absorbance of PINK was monitored upon addition of calf-thymus (CT) DNA. Consistent with intercalation,^[42-44] a bathochromic shift in PINK absorbance was observed upon addition of CT DNA (FIG. 3, a). To further evaluate the binding mode, viscosity measurements of concentrated DNA solutions were conducted in presence of increasing amounts of PINK. […] By taking the maximum binding stoichiometry of PINK into account (1 molecule per 5 base pairs; see FIG. 1b), an apparent dissociation constant KD can be calculated according to KD=[(unbound PINK)*(unbound DNA binding sites)]/(PINK-bound binding sites).
Binding Affinity Measurements of PINK with CT-DNA. Binding of PINK to CT-DNA was assessed by monitoring changes of absorbance collecting measurements on a SpectraMax M5 plate reader (Molecular Devices, Sunnyvale, CA, USA) in 1 cm path-length quartz cuvettes. […] Binding of PINK to CT-DNA and determination of an apparent binding constant (KD) was calculated by plotting changes of absorbance at 575 nm.

[1] = Kinetic measurements with the VdU nucleoside (non-templated IEDDA reaction); details: 50 mM aq. NaOAc buffer pH 5.2 (27% DMSO)
Procedure: A) Fluorescence increase versus time upon mixing PINK with VdU. […] B) Normalized increase of fluorescence. C) Plot of the observed rates k′ versus PINK concentrations. The slope yields the rate constant k.
PINK (4) undergoes a highly fluorogenic and regioselective IEDDA reaction with VdU (5) to give “PINK-VdU-ox” (6) as a single isomer in a 76% isolated yield after 7d at 60° C. (Scheme 1). The slow rate of this non-templated reaction (Kapp=0.01 M^−1 s^−1, FIG. 5) is due to the combination of an unstrained terminal alkene and unactivated tetrazine.^[49] Over the course of the reaction, a ˜100-fold increase in fluorescence was observed (FIG. 3, c). […]
Kinetic Measurements with the VdU Nucleoside. Second order reaction rates between PINK and VdU were determined under pseudo first order conditions with a large excess of the dienophile over the tetrazine. […] Measurements were performed on a SpectraMax M5 plate reader (Molecular Devices, Sunnyvale, CA, USA) in 384 well plates (Greiner bio-one, cat-#871906; 50 μL per well; covered with 20 μL spectroscopic grade silicon oil to avoid evaporation). […] Samples were measured over 18 h in intervals of 10 min. […] Reactions rates were calculated using pseudo first order approximations fitting the measurements to mono exponential equations. The reported reaction rate is an arithmetic mean determined from three independent experiments.

Jurkat cells = assay: Resazurin combination toxicity assay; assay type: cell-based; details: Homo sapiens
Procedure: (§1) From the single toxicity experiment, it was determined that the optimal subtoxic concentration of PINK to be used for the combination toxicity assays would be 1 μM. To test how effective the vinyl-nucleosides (VdU/VdA) in combination with PINK are at killing the cells compared to the vinyl-nucleosides alone, another resazurin reduction assay was carried out.
(§2) To determine if it is possible to treat the leukemia cells with the vinyl-nucleosides and PINK simultaneously, instead of adding them sequentially, another resazurin reduction assay using the same concentrations of each compound as in the previous combination experiment was carried out, where instead the vinyl-nucleosides and PINK were added on the same day instead of on two consecutive days.
(§3) Resazurin Combination toxicity assays. MV4-11, MOLM-13 and Jurkat cells were seeded in 96-well plates at a density of 20 000 cells/well, 25 000 cells/well and 30 000 cells/well, respectively, in triplicates. For the sequential addition, the cells were first treated with the nucleosides (VdU/VdA) diluted in fresh media in 1:4 serial dilutions (˜0.01% DMSO) at concentrations of 500-0 μM, and incubated overnight. 24h post nucleoside addition, the cells were treated with 1 μM PINK diluted in fresh media (˜1% DMSO), and incubated for 24-72h. The cells were treated with resazurin, incubated and measured, as described above. For the simultaneous addition, the cells were treated with nucleosides and PINK on the same day at the same concentrations as describes above, and incubated for 24-72h.

MV4-11 cells = assay: Resazurin combination toxicity assay; assay type: cell-based; details: Homo sapiens
Procedure: as §1, §2, §3

MOLM-13 cells = assay: Resazurin combination toxicity assay; assay type: cell-based, human; details: Homo sapiens, MOLM-13, MOLM-13; variable VdU/VdA alone or with 1 μM PINK added 24 h post nucleoside addition; read-out: IC50 value (48 h) for sequential addition
Procedure: as §1, §3

[2] = 48 h, variable VdU/VdA alone or with 1 μM PINK added on the same day, read-out: IC50 value (48 h) for simultaneous addition
[3] = variable VdU/VdA alone or with 1 μM PINK added 24 h post nucleoside addition, read-out: IC50 value (48 h) for sequential addition

SMILES | pKd (calf thymus (CT) DNA) | rate of non-templated reaction (Kapp) ([1]; 100 μM PINK, 1-5 mM VdU) [M⁻¹ s⁻¹] | stability of PINK under control conditions (0 mM VdU) ([1]; 18 h) | pIC50 (Jurkat cells; [2]) | pIC50 (Jurkat cells; [3]) | pIC50 (MV4-11 cells; [2]) | pIC50 (MV4-11 cells; [3]) | pIC50 (MOLM-13 cells)
Cc1nnc(-c2ccc3cc4ccc(N(C)C)cc4nc3c2)nn1 [PINK] | 5.30 and 5.29 | 0.01 | full stability | – | – | – | – | –
C=Cc1cn([C@H]2C[C@H](O)[C@@H](CO)O2)c(=O)[nH]c1=O [VdU, 5-vinyl-2′-deoxyuridine] | – | – | – | 3.39 | 4.24 | 3.91 | 4.22 | 4.74
